Data set [1] has as its system carrageenan-induced edema. Description: Carrageenan-induced edema inhibiting effect of betamethasone valerate ointment. Type of data set: in vivo. The note with it: rat paw, 0.15 part betamethasone valerate, 9.85 parts enhancer, vs gel ointment base. The procedure: The carrageenan-induced edema inhibiting effect of the ointment was examined in accordance with the method of E. Passarella [Arzneim, Forsch. 30 (I), No. 4, pages 647-651 (1980)]. Specifically, 0.1 ml of a 1% carrageenan suspension in 0.9% NaCl solution was injected into the tip of the right paw of each rat (body weight 150-175 g). The volume of the paw was measured before the administation of carrageenan and 3, 5 and 6 hours after the carrageenan administration by a mercury displacement device. The ointment was well rubbed into the inflamed site in an amount of 100 mg.
These ointments were applied to the tip of the paw, and their edema inhibiting effects were examined.
The percent edema inhibitions were calculated on the basis of the edema formation ratio of a rat to which only the gel ointment base was administered.
(In general: In the carrageenan paw model, swelling and tenderness develop within hours.)

Data set [2] deals with serum calcium level. The format is in vivo.
Protocol: This nasal drop contained 15 units/50 microliters of calcitonin. The nasal drop in a dose of 50 microliters was administered to the nasal cavity of a New Zealand rabbit (clean). The calcium concentration in the serum after administration was measured by using a calcium measuring kit (Iatoron Co.).
They were individually administered to the nasal cavity of a rabbit, and the concentration of calcium in the serum was measured.
Data set [3] in a line: Drug diffusion through egg shell membrane in diffusion cell with dodecyl L-pyroglutamate. Conditions: control without enhancer = 100; drug 0.05%, dodecyl L-pyroglutamate 1.0% in donor side, 37° C.
For data set [4], the system named is serum calcium level. Description: Serum calcium after intrarectal (Asu^1.7)-eel calcitonin suppository in rats. The format is in vivo. Conditions: rat, 0.7 MRC unit calcitonin, 7 parts enhancer. The procedure:
(Asu^1.7)-eel calcitonin was gradually added and mixed with the mixture to form a uniform composition. The composition was slightly warmed, and filled into a suppository container to form a suppository for rats having a diameter of about 3 mm and a length of about 8 mm. This suppository contained 0.7 MRC unit of calcitonin. The suppository was intrarectally administered to a rat, and the concentration of calcium in the blood serum after administration was measured by using a calcium measuring kit (made by Iatoron Co.).
For comparison, suppositories (Comparisons 76 to 87) composed of 93 parts of cacao butter, 7 parts of the various pyroglutamates shown in Table 6 and caltitonin and a suppository composed only of cacao butter and caltitonin (Comparison 88) were prepared. They wre individually administered intrarectally to rats, and the calcium concentration in the serum was measured.

Another data set concerns blood glucose level. Nature of the data set: Blood glucose after intrarectal hog insulin gelatin capsular suppository in rabbits. Type of data set: in vivo. The note with it: rabbit, 9.6 units insulin, 10 parts enhancer. The procedure:
Fractionated coconut oil (90 parts) and 10 parts of each of the various pyroglutamates indicated in Table 7 were uniformly mixed, and then hog insulin was gradually added to form a uniform dispersion. The dispersion was filled in a gelatin capsule for suppositoes to form a gelatin capsular suppository. The suppository contained 9.6 units of insulin. The suppository was intrarectally administered to a rabbit and the blood glucose level after administration was measured by the glucose oxidase method.
For comparison, suppositories composed of 90 parts of fractionated coconut oil, 10 parts of the various pyroglutamates indicated in Table 7 (Comparisons 89 to 102) and insulin, and a suppository composed only of fractionated coconut oil and insulin (Comparison 103) were prepared, and tested in the same way as above.

The conditions of data set [5]: dog, in vivo.
Protocol: Cacao butter (80 parts), 10 parts of each of the pyroglumtamates indicated in Table 8, and 10 parts of cephalothin sodium were uniformly mixed and then slightly warmed. The mixture was filled in a suppository container to form a suppository containing 1 g of the mixture. The suppository was administered intrarectally to a Beagle dog, and the concentration of cephalothin sodium in the blood after administration was measured by the cup method.
These suppositories were individually administered intrarectally to Beagle dogs, and the concentration of cephalothin sodium in the blood was measured.

Where two headings read alike, the source gives them in different places.

The values below come from US4789667A, “External pharmaceutical composition and methods of use” (priority 1984, dated 1988).

For the molecule `O=C1CCC(C(=O)O)N1` (racemic) [DL-Pyroglutamic acid], the Edema inhibition in data set [1] (3 hrs.) was 10.8%; in data set [1] (6 hrs.) it was 11.4%; in data set [1] (9 hrs.) it was 15.2%. For the same molecule, the “Percent decrease of the serum calcium level from that before administration” value is recorded as 2.0% in the data set on serum calcium level [2] (1 h), 1.0% with serum calcium level [2] (2 h), 0% with serum calcium level [2] (3 h) and 0% in the data set on serum calcium level [2] (5 h).

Consider `CN(C)CCCN1c2ccccc2Sc2ccc(Cl)cc21` [Chlorpromazine], for which the “Relative amount of permeation after 30 minutes” value (“Relative amount of permeation” below) in data set [3] was 124.

Regarding `CCC=CCCCCCCCCOC(=O)[C@@H]1CCC(=O)N1` [Compound (220), 9-Dodecenyl L-pyroglutamate], the Edema inhibition is 18.3% in data set [1] (3 hrs.), 37.7% in data set [1] (6 hrs.) and 36.9% in data set [1] (9 hrs.).

Regarding `CC(C)=CCCC(C)CCOC(=O)[C@@H]1CCC(=O)N1` (stereo partly drawn) [Compound (224), Citronyl L-pyroglutamate], the Edema inhibition is 19.5% in data set [1] (3 hrs.), 38.8% in data set [1] (6 hrs.) and 38.5% in data set [1] (9 hrs.). The “Percent decrease of the serum calcium level from that before administration” value in the data set on serum calcium level [4] (1 hr.) worked out at 29.2%; in the data set on serum calcium level [4] (2 hrs.), 26.7%; with serum calcium level [4] (3 hrs.) it was 11.4%; in the data set on serum calcium level [4] (5 hrs.), 0.9%; in the data set with serum calcium level [2] (1 hr., rabbit, nasal, 15 units/50 microliters calcitonin, 10 parts enhancer), 9.0%; in the data set with serum calcium level [2] (2 hrs., rabbit, nasal, 15 units/50 microliters calcitonin, 10 parts enhancer) it was 6.3%. Besides, the “Percent decrease of the serum calcium level from that before administration” value came to 2.2% in the data set with serum calcium level [2] (3 hrs., rabbit, nasal, 15 units/50 microliters calcitonin, 10 parts enhancer) and 0.6% in the data set on serum calcium level [2] (5 hrs., rabbit, nasal, 15 units/50 microliters calcitonin, 10 parts enhancer). Moreover, the “Percent decrease of the blood glucose level from that before administration” value turned out to be 29.2% with blood glucose level (30 min.), 32.1% with blood glucose level (1 hr.), 18.5% in the data set with blood glucose level (2 hrs.) and 3.1% in the data set with blood glucose level (3 hrs.). In addition, the “Concentration of cephalothin sodium in the blood” value in data set [5] (60 min) worked out at 300 ng/mL; in data set [5] (180 min) it was 400 ng/mL; in data set [5] (300 min), 300 ng/mL.

As to `CC1CCC(C(C)C)C(OC(=O)[C@@H]2CCC(=O)N2)C1` (stereo partly drawn) [Compound (308), Menthyl L-pyroglutamate], the Edema inhibition in data set [1] (3 hrs.) stood at 17.0%; in data set [1] (6 hrs.) it was 38.0%; in data set [1] (9 hrs.), 40.2%.

As for `CC1(C)C2CCC1(C)C(OC(=O)[C@@H]1CCC(=O)N1)C2` (stereo partly drawn) [Compound (310), Bornyl L-pyroglutamate], the Edema inhibition in data set [1] (3 hrs.) stood at 17.0%; in data set [1] (6 hrs.), 39.4%; in data set [1] (9 hrs.), 40.2%.

For the molecule `CCCCCCCCCCCCCCCCCCCCOC(=O)[C@@H]1CCC(=O)N1` [Eicosanyl L-pyroglutamate], the Edema inhibition stood at 9.3% in data set [1] (3 hrs.), 10.5% in data set [1] (6 hrs.) and 15.6% in data set [1] (9 hrs.).

As for `C[C@]12CC[C@@H]3c4ccc(O)cc4CC[C@H]3[C@@H]1CC[C@@H]2O` [Estradiol], the “Relative amount of permeation” value in data set [3] came out at 203.

`CCOC(=O)[C@@H]1CCC(=O)N1` [Ethyl L-pyroglutamate]: the Edema inhibition in data set [1] (3 hrs.) is reported as 10.4%; in data set [1] (6 hrs.), 12.7%; in data set [1] (9 hrs.), 17.2%.

With `COC1=CC(=O)C[C@@H](C)[C@]12Oc1c(Cl)c(OC)cc(OC)c1C2=O` [Griseofulvin], in data set [3], the “Relative amount of permeation” value is listed as 221.

In the case of `CCCCCCCCCCCCCCCCCOC(=O)[C@@H]1CCC(=O)N1` [Heptadecyl L-pyroglutamate], the figures for the Edema inhibition in data set [1] (3 hrs.), in data set [1] (6 hrs.) and in data set [1] (9 hrs.) were 11.2%, 10.6% and 16.5%, respectively.

Regarding `CCCCCCCOC(=O)[C@@H]1CCC(=O)N1` [Heptyl L-pyroglutamate], the values for the Edema inhibition in data set [1] (3 hrs.), in data set [1] (6 hrs.) and in data set [1] (9 hrs.) were 9.3%, 12.8% and 13.7%, respectively.

For `CCCCCCOC(=O)[C@@H]1CCC(=O)N1` [Hexyl L-pyroglutamate], the Edema inhibition was found to be 10.0% in data set [1] (3 hrs.), 11.5% in data set [1] (6 hrs.) and 13.8% in data set [1] (9 hrs.).

On to `COc1ccc2c(c1)c(CC(=O)O)c(C)n2C(=O)c1ccc(Cl)cc1` [Indomethacin], for which the “Relative amount of permeation” value in data set [3] is on record as 220.

On to `O=C1CC[C@@H](C(=O)O)N1` [L-Pyroglutamic acid], for which the Edema inhibition in data set [1] (3 hrs.) is reported as 10.3%; in data set [1] (6 hrs.), 11.2%; in data set [1] (9 hrs.) it was 16.3%. Also, the “Percent decrease of the serum calcium level from that before administration” value in the data set on serum calcium level [2] (1 h) was determined as 1.9%; with serum calcium level [2] (2 h), 0.7%; with serum calcium level [2] (3 h) it was 0%; in the data set with serum calcium level [2] (5 h), 0%.

As to `C[C@](N)(Cc1ccc(O)c(O)c1)C(=O)O` [Methyldopa], the “Relative amount of permeation” value in data set [3] is on record as 153.

As for `CCCCCCCCCCCCCCCCCCOC(=O)[C@@H]1CCC(=O)N1` [Octadecyl L-pyroglutamate], the Edema inhibition is listed as 10.0% in data set [1] (3 hrs.), 11.4% in data set [1] (6 hrs.) and 14.4% in data set [1] (9 hrs.).

As to `CCCCC[C@H](O)/C=C/[C@@H]1[C@@H](C/C=C\CCCC(=O)O)[C@@H](O)C[C@H]1O` [Prostaglandin F2], the “Relative amount of permeation” value in data set [3] was found to be 166.

Turning to `O=C(O)c1ccccc1O` [Salicyclic acid], the “Relative amount of permeation” value in data set [3] was 208.
